From US20260250318A1, “COMPOSITIONS AND METHODS FOR CROSSING THE BLOOD BRAIN BARRIER” (VOYAGER THERAPEUTICS, INC., priority 2022, published 2026)

How the values were obtained:
Conditions in all cases: synthetic library passage 3, intravenous, relative to wild-type AAV9
brain [1] = assay: NGS fold enrichment of synthetic library (passage 3) in BALB/c mice, first cross-species screen; assay type: in vivo
In short: (§1)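 Passage-3 synthetic capsid library given intravenously […] to NHPs (2-4 years) and BALB/c or C57Bl/6 mice (n=3, 6-8 weeks). After e.g. 28 days, tissue RNA was RT-PCR amplified and NGS-sequenced; values are fold enrichment of each variant relative to wild-type AAV9.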

[2] = test system: brain, spinal cord, and DRG of the NHPs; assay: NGS fold enrichment of synthetic library (passage 3) in NHPs, first cross-species screen; assay type: in vivo, cynomolgus macaques (Macaca fascicularis)
In short: as §1

brain [3] = assay: NGS fold enrichment of synthetic library (passage 3) in C57Bl/6 mice, first cross-species screen; assay type: in vivo
In short: as §1

[4] = RNA from brain of BALB/c mice, NGS
[5] = RNA from spinal cord of NHPs, NGS
[6] = RNA from brain of C57Bl/6 mice, NGS

Sequence | Fold enrichment over AAV9 in the brain of Mice (BALB/c) (brain [1]; RNA NGS, brain of BALB/c mice) [fold] | Fold enrichment over AAV9 in the brain of NHPs ([2]; RNA NGS, brain of NHPs) [fold] | Fold enrichment over AAV9 in the spinal cord of NHPs ([2]; RNA NGS, spinal cord of NHPs) [fold] | Fold enrichment over AAV9 in the brain of Mice (C57Bl/6) (brain [3]; RNA NGS, brain of C57Bl/6 mice) [fold] | Fold enrichment over AAV9 in the brain of Mice (BALB/c) (brain [1]; [4]) [fold] | Fold enrichment over AAV9 in the brain of NHPs ([2]; RNA from brain of NHPs, NGS) [fold] | Fold enrichment over AAV9 in the spinal cord of NHPs [2, 5] [fold] | Fold enrichment over AAV9 in the brain of Mice (C57Bl/6) (brain [3]; [6]) [fold]
GSVHMQNAGQNQQT | 0.625 | 1.034 | 3.608 | 1.004 |  |  |  | 
GLGSKNHSGQNQQT |  |  |  |  | 0.224 | 1.187 | 5.046 | 0.825
GSGKVTKQSQNQQT | 1.035 | 1.095 | 0.000 | 0.928 |  |  |  | 
GSGGVTYQSQNQQT | 0.181 | 1.673 | 7.283 | 0.649 |  |  |  | 
GPDRIGSSGQNQQT |  |  |  |  | 0.342 | 1.308 | 0.426 | 0.654
GGVLVGGSGQNQQT | 0.688 | 2.778 | 0.178 | 1.527 |  |  |  | 
GRGVITSSGQNHQT | 0.669 | 2.004 | 0.864 | 1.656 |  |  |  | 
GSGSVGFIGQNQQT |  |  |  |  | 0.445 | 1.227 | 8.261 | 0.689
GSDGKMHRGQNQQT |  |  |  |  | 0.776 | 1.227 | 0.000 | 1.826
GSGLPVLSGQNQQT | 0.210 | 3.100 | 4.149 | 0.631 |  |  |  | 
GVGVITSSGQNQQT |  |  |  |  | 0.777 | 1.348 | 0.918 | 1.296
GSGLSVHLAQNQQT | 0.508 | 2.657 | 1.234 | 0.806 |  |  |  | 
GSGQNQQSQYMPRT |  |  |  |  | 0.520 | 1.234 | 0.401 | 0.549
GSGHSPLPQQNQQT | 0.247 | 1.562 | 0.556 | 0.387 |  |  |  | 
GANMGHVSGQNQQT | 1.138 | 2.020 | 0.810 | 1.302 |  |  |  | 
GIARTTISGQNQQT | 0.330 | 1.078 | 1.783 | 0.819 |  |  |  | 

Sequence | Fold enrichment over AAV9 in the brain of Mice (BALB/c) (brain [1]; RNA NGS, brain of BALB/c mice) [fold] | Fold enrichment over AAV9 in the brain of NHPs ([2]; RNA NGS, brain of NHPs) [fold] | Fold enrichment over AAV9 in the spinal cord of NHPs ([2]; RNA NGS, spinal cord of NHPs) [fold] | Fold enrichment over AAV9 in the brain of Mice (C57Bl/6) (brain [3]; RNA NGS, brain of C57Bl/6 mice) [fold] | Fold enrichment over AAV9 in the brain of Mice (BALB/c) (brain [1]; [4]) [fold] | Fold enrichment over AAV9 in the brain of NHPs ([2]; RNA from brain of NHPs, NGS) [fold] | Fold enrichment over AAV9 in the spinal cord of NHPs [2, 5] [fold] | Fold enrichment over AAV9 in the brain of Mice (C57Bl/6) (brain [3]; [6]) [fold]
GSEQTRQSGQNQQT |  |  |  |  | 0.900 | 1.321 | 0.514 | 0.734
GHPSPHVSGQNQQT | 0.488 | 1.713 | 0.416 | 0.551 |  |  |  | 
GVKGVGHSGQNQQT | 0.783 | 1.096 | 2.485 | 0.994 |  |  |  | 
GSGQNQQTTAATRM |  |  |  |  | 1.005 | 1.163 | 3.925 | 0.947
GSGQNQQTAIYRNI | 1.437 | 1.854 | 2.207 | 0.818 |  |  |  | 
GVHSLTPSGQNQQT | 0.215 | 1.687 | 4.104 | 0.475 |  |  |  | 
GSGQNQQSGRGDLT | 1.152 | 2.019 | 6.919 | 0.524 |  |  |  | 
GSGQNHGVLSNQQT | 0.701 | 2.254 | 1.603 | 1.113 |  |  |  | 
GSGQNQQTGQATHN | 0.527 | 0.996 | 2.199 | 0.877 |  |  |  | 
GSSVRSLVGQNQQT | 0.608 | 1.004 | 3.840 | 0.412 |  |  |  | 
GSGQNHGLQSGQQT | 0.779 | 1.530 | 4.960 | 0.938 |  |  |  | 
GSGQNQQHANLNQT | 0.544 | 1.410 | 0.094 | 0.416 |  |  |  | 
GSGLRTMTTQNQQT | 0.594 | 1.900 | 8.939 | 0.838 |  |  |  | 
GSGQNQQHYGSQGT |  |  |  |  | 0.379 | 1.189 | 0.453 | 1.345
GSGLKPNVLQNQQT |  |  |  |  | 0.268 | 1.263 | 0.975 | 0.701
GSGSQLMSLQNQQT | 0.172 | 2.065 | 3.559 | 0.563 |  |  |  | 
